Data on ten molecules can be found in PubChem BioAssay (NCI).

Test systems include 786-0 renal; CAKI-1 renal; HCT-116 colon; IGROV1 ovarian; MDA-MB-231 breast; MDA-N; MOLT-4 leukemia; NCI-H460 lung; OVCAR-4 ovarian; OVCAR-5 ovarian; OVCAR-8 ovarian; PC-3 prostate; SK-OV-3 ovarian; UACC-62 melanoma; SN12C renal.
Holding throughout (assay): DTP human tumour cell line panel, 48 h

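Following 48 hours of exposure in 96-well plates, responses at five concentrations were used to interpolate endpoints linearly. TGI marks complete inhibition of growth.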

A word on the TGI: it is the concentration at which net growth stops. Higher therefore signals lower sensitivity of the cells. Take `O=C(NCCC1CNc2ccccc21)OCc1ccccc1` (configuration not stated): the TGI with 786-0 renal, with CAKI-1 renal, with HCT-116 colon, with IGROV1 ovarian, with MDA-MB-231 breast and with MDA-N was > 100 µM in each case. Also, the TGI in the test on MOLT-4 leukemia, in the test on NCI-H460 lung, with OVCAR-4 ovarian, in the test with OVCAR-5 ovarian, in the test with OVCAR-8 ovarian and with PC-3 prostate was > 100 µM in each case. Besides, the TGI in the test with SK-OV-3 ovarian and with UACC-62 melanoma was > 100 µM in each case.

On to `O=[N+]([O-])c1ccc(/C=N/Nc2nc3ccccc3[nH]2)o1`, for which the TGI in the test on 786-0 renal is > 100 µM; in the test with CAKI-1 renal, 28.7 µM; in the test with HCT-116 colon, 36.7 µM; with IGROV1 ovarian, 26.7 µM; in the test on MDA-MB-231 breast it was 70.9 µM; in the test on MDA-N, 31.7 µM. In addition, the TGI with MOLT-4 leukemia was 27.3 µM; with NCI-H460 lung, > 100 µM; in the test on OVCAR-4 ovarian, 21.6 µM; with OVCAR-5 ovarian, 49.8 µM; with OVCAR-8 ovarian, 38 µM; in the test with PC-3 prostate, 49.2 µM. The TGI is > 100 µM in the test with SK-OV-3 ovarian and 32.6 µM in the test with SN12C renal.

For the molecule `Cc1ccc(S(=O)(=O)N(CC(O)COc2ccccc2)c2c(F)cccc2F)cc1` (configuration not stated), the TGI with 786-0 renal is 42.1 µM; with CAKI-1 renal, 33.8 µM; in the test with MDA-MB-231 breast, 43.8 µM; in the test with MDA-N, 31.4 µM; in the test on MOLT-4 leukemia it was > 100 µM; with NCI-H460 lung, 31.6 µM. The TGI is 31.7 µM with OVCAR-4 ovarian; > 100 µM in the test on OVCAR-5 ovarian; 35.5 µM in the test with OVCAR-8 ovarian; 36.9 µM in the test on PC-3 prostate; 41.3 µM with SK-OV-3 ovarian; 47.8 µM with SN12C renal. This molecule also yielded a TGI with UACC-62 melanoma of 36.3 µM.

For `CSC(=O)/C=C1\SS/C(=C\C(=O)SC)S1`, the TGI came out at 4.03 µM in the test with 786-0 renal; 4.25 µM in the test with CAKI-1 renal; 3.29 µM in the test with HCT-116 colon; 11.6 µM with IGROV1 ovarian; 4.85 µM in the test with MDA-MB-231 breast; 8.37 µM in the test with MDA-N. Also, the TGI was > 100 µM in the test with MOLT-4 leukemia; 7.61 µM in the test on NCI-H460 lung; > 41.2 µM in the test on OVCAR-4 ovarian; 13.7 µM in the test on OVCAR-5 ovarian; 11.7 µM with OVCAR-8 ovarian; 9.32 µM in the test on PC-3 prostate. Moreover, the results for the total growth inhibition concentration (TGI) with SN12C renal and in the test on UACC-62 melanoma were 3.79 µM and 2.87 µM, respectively.

In the case of `CCOC(=O)c1cn(CC)c(=O)n2c1nc1ccccc12`, the TGI with 786-0 renal, in the test with CAKI-1 renal, with HCT-116 colon, in the test on IGROV1 ovarian, in the test on MDA-MB-231 breast and in the test on MDA-N was > 100 µM each time. The TGI in the test with MOLT-4 leukemia, in the test with NCI-H460 lung, with OVCAR-4 ovarian, in the test with OVCAR-5 ovarian, in the test on OVCAR-8 ovarian and with PC-3 prostate was > 100 µM throughout. Moreover, the TGI with SN12C renal and with UACC-62 melanoma was > 100 µM in each case.

With `Cn1c2ccccc2c(=O)c2c(O)cc3c(c21)C1OCC(C)(O)C1O3` (configuration not stated), the TGI is > 100 µM in the test with 786-0 renal; > 100 µM in the test with CAKI-1 renal; > 100 µM in the test with HCT-116 colon; 79.7 µM in the test on IGROV1 ovarian; > 100 µM in the test with MDA-MB-231 breast; > 100 µM in the test with MDA-N. The TGI with MOLT-4 leukemia, with OVCAR-4 ovarian, in the test with OVCAR-5 ovarian, in the test with OVCAR-8 ovarian, with PC-3 prostate and in the test with SK-OV-3 ovarian was > 100 µM each time. Besides, the TGI in the test with SN12C renal was > 100 µM.

Regarding `Cc1cc(N(CCC#N)CCC#N)ccc1/C(N=Nc1ccccc1)=N\NC(=O)c1cc(Cl)ccc1O`, the concentration for total growth inhibition (TGI) with 786-0 renal was 70.3 µM; in the test with CAKI-1 renal, > 100 µM; with HCT-116 colon, 36.7 µM; with IGROV1 ovarian it was > 100 µM; in the test on MDA-MB-231 breast, 83 µM; with MDA-N, > 100 µM. For the same molecule, the TGI with MOLT-4 leukemia was 92.6 µM; with NCI-H460 lung, 57.5 µM; with OVCAR-4 ovarian, 65.4 µM; in the test on OVCAR-8 ovarian, 81.5 µM; in the test on PC-3 prostate it was > 100 µM; in the test on SK-OV-3 ovarian it was > 100 µM. Moreover, the figures for the TGI in the test with SN12C renal and with UACC-62 melanoma were > 100 µM and 27.7 µM, respectively.

`CSc1nncc(-c2cc3c(c(SC)n2)CCCC3)n1`: the TGI in the test with 786-0 renal, in the test on CAKI-1 renal, in the test on HCT-116 colon, with MDA-MB-231 breast, in the test with MDA-N and with MOLT-4 leukemia was > 100 µM in each case. Moreover, the total growth inhibition concentration (TGI) in the test on NCI-H460 lung, with OVCAR-4 ovarian, with OVCAR-5 ovarian, in the test with OVCAR-8 ovarian, with PC-3 prostate and with SK-OV-3 ovarian was > 100 µM each time. For the same molecule, the TGI with SN12C renal and in the test with UACC-62 melanoma was > 100 µM each time.

Consider `NC1=NC2(COC(c3ccccc3)(c3ccccc3)c3ccccc3)OC(COC(c3ccccc3)(c3ccccc3)c3ccccc3)C(O)C2O1` (configuration not stated), for which the TGI in the test on 786-0 renal, in the test on CAKI-1 renal, in the test with HCT-116 colon, with IGROV1 ovarian, with MDA-MB-231 breast and with MDA-N was > 100 µM in each case. The TGI with MOLT-4 leukemia, in the test on OVCAR-5 ovarian, with OVCAR-8 ovarian, in the test with PC-3 prostate, in the test with SK-OV-3 ovarian and in the test on SN12C renal was > 100 µM throughout. For the same molecule, the TGI in the test with UACC-62 melanoma was > 100 µM.

For the molecule `NNc1nnc(CCCCCCCCc2nnc(NN)n2N)n1N`, the TGI with 786-0 renal, in the test on CAKI-1 renal, in the test on HCT-116 colon, in the test with IGROV1 ovarian, in the test on MDA-MB-231 breast and in the test with MDA-N was > 100 µM each time. In addition, the TGI was > 100 µM in the test on MOLT-4 leukemia; > 100 µM in the test with NCI-H460 lung; > 100 µM in the test with OVCAR-4 ovarian; > 100 µM in the test with OVCAR-5 ovarian; 76.7 µM in the test with OVCAR-8 ovarian; > 100 µM in the test on PC-3 prostate. Besides, the TGI in the test on SK-OV-3 ovarian and in the test with SN12C renal was > 100 µM in each case.
